Assay results reported in ChEMBL document CHEMBL1201862, “PubChem BioAssay data set” (2004).
Activity calls are given as the source filed them.

Tests used:
[1] = molecular target: 26S proteasome non-ATPase regulatory subunit 14 (Homo sapiens, UniProt O00487); assay: inhibition of proteasome subunit RPN11 – biochemical, fluorescence polarization, uHTS hits, confirmation (AID 602368); assay type: functional
[2] = molecular target: 72 kDa type IV collagenase (Homo sapiens, UniProt P08253); assay: Dose Response validation of uHTS RPN11 inhibitor hits using a MMP-2 Fluorescence assay.; assay type: functional
Major prion protein = Major prion protein (Homo sapiens, UniProt P04156); assay type: functional, cell-based
Prothrombin = Prothrombin (Bos taurus, UniProt P00735); assay: thrombin protease inhibitors – biochemical, fluorescence polarization, uHTS hits, dose response (AID 602369); assay type: functional
Beta Lactamase = Beta Lactamase (Pseudomonas aeruginosa, UniProt Q932Y6); assay: BLA reporter interference, concentration series – BLA reporter cells, FRET fluorescence, artefact control for TLR9-MyD88 binding inhibitor project, dose response (AID 588341); assay type: cell-based;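 note: cell based assay in CHO-K1 cells stably expressing beta-lactamase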
CHO = CHO cell viability loss, potency – luminescence, cytotoxicity control for TLR9-MyD88 binding inhibitor project, dose response (AID 588339); assay type: functional, cell-based, hamster; conditions: Cricetulus griseus;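 note: CHO cells stably coexpressing TLR9 and MyD88 fusions from primary screen; compound exposure lasted 48 hours before viability readout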
[3] = molecular target: T1, Rac GTPase-activating protein 1 (Homo sapiens, UniProt Q9H0H5); assay: blockers of MgcRacGAP-driven Rac1 GTP hydrolysis – biochemical, ADP Hunter fluorescence, primary and confirmatory, confirmation (AID 624330); assay type: functional
T1 sequence (Q9H0H5 whole entry): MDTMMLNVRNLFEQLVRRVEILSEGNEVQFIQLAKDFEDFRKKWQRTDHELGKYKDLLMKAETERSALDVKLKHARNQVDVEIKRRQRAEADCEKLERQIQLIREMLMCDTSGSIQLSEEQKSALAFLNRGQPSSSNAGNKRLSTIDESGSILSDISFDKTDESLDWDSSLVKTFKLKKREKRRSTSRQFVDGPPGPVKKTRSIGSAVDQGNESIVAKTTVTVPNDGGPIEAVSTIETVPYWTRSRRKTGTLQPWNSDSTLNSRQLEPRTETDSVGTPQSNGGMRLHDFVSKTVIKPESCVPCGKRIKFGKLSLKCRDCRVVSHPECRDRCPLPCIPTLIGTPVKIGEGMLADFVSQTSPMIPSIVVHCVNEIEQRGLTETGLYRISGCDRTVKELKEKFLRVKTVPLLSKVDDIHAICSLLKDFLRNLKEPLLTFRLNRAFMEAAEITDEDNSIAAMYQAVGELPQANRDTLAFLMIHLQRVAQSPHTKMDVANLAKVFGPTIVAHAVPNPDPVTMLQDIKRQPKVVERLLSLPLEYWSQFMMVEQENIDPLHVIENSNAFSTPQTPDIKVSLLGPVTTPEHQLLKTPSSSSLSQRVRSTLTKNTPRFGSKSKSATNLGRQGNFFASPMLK

[4] = molecular target: Apoptotic protease-activating factor 1 (Homo sapiens, UniProt O14727); assay type: functional
H9c2 = assay: cells; assay type: functional, cell-based; conditions: Rattus norvegicus, H9c2, Myocardium;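 note: confirmatory concentration-response retest of ultra-high-throughput screening hits for modulation of myocardial damage; cell death induced by hydrogen peroxide oxidative stress; compound pretreatment for 60 min then peroxide exposure for 2 h; potency is for protecting the cells against peroxide damage rather than for killing them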
[5] = molecular target: T2, Sentrin-specific protease 7 (Homo sapiens, UniProt Q9BQF6); assay: inhibition of human SENP7 cleavage activity – biochemical, luminescence, SAR follow-up (AID 504497); assay type: functional
T2 sequence (Q9BQF6 whole entry): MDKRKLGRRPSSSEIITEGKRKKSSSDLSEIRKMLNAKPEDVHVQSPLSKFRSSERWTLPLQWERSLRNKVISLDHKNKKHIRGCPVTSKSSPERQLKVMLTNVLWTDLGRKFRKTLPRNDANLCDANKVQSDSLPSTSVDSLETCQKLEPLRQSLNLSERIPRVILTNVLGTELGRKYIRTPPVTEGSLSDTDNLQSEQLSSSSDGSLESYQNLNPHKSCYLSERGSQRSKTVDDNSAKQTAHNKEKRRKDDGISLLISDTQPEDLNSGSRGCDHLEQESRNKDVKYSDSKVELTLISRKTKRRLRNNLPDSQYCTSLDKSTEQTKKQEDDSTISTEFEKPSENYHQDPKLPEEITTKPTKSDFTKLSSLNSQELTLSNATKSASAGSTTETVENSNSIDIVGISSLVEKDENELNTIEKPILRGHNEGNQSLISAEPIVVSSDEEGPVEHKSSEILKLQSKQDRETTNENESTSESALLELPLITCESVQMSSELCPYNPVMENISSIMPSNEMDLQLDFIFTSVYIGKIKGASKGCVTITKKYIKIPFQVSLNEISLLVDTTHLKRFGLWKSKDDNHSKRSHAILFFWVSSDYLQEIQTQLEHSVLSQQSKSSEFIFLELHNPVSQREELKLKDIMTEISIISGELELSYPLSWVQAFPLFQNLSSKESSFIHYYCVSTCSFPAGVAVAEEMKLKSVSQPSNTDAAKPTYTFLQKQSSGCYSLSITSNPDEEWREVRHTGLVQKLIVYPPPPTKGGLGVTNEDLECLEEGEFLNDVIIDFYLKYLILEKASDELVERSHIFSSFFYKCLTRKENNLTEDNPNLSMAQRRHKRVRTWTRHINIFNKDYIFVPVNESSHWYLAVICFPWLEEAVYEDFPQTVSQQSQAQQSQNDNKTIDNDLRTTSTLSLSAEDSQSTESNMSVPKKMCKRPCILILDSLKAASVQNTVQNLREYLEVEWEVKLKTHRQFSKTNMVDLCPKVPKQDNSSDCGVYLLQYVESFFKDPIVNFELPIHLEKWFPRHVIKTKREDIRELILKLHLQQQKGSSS

Caspase-3 = molecular target: T3, Caspase-3 (Homo sapiens, UniProt P42574); assay: SAR Analysis of small molecule inhibitors of Sentrin-specific proteases (SENPs) using a Caspase-3 Selectivity assay. [Related pubchem assays (depositor defined):AID2540, AID2599, AID434973, AID489001]; assay type: functional
T3 sequence (P42574 whole entry): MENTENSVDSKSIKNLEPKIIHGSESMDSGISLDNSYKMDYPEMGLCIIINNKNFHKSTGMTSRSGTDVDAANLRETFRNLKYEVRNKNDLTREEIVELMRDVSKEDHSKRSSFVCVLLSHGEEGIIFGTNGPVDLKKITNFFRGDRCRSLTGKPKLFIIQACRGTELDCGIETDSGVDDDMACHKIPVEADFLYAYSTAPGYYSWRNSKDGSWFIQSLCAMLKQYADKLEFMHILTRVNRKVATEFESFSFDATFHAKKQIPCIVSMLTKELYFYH

[6] = molecular target: T4, Sentrin-specific protease 6 (Homo sapiens, UniProt Q9GZR1); assay: SAR Analysis of small molecule inhibitors of Sentrin-specific protease 6 (SENP6) using a Luminescent assay. [Related pubchem assays (depositor defined):AID2582, AID2599]; assay type: functional
T4 sequence (Q9GZR1 whole entry): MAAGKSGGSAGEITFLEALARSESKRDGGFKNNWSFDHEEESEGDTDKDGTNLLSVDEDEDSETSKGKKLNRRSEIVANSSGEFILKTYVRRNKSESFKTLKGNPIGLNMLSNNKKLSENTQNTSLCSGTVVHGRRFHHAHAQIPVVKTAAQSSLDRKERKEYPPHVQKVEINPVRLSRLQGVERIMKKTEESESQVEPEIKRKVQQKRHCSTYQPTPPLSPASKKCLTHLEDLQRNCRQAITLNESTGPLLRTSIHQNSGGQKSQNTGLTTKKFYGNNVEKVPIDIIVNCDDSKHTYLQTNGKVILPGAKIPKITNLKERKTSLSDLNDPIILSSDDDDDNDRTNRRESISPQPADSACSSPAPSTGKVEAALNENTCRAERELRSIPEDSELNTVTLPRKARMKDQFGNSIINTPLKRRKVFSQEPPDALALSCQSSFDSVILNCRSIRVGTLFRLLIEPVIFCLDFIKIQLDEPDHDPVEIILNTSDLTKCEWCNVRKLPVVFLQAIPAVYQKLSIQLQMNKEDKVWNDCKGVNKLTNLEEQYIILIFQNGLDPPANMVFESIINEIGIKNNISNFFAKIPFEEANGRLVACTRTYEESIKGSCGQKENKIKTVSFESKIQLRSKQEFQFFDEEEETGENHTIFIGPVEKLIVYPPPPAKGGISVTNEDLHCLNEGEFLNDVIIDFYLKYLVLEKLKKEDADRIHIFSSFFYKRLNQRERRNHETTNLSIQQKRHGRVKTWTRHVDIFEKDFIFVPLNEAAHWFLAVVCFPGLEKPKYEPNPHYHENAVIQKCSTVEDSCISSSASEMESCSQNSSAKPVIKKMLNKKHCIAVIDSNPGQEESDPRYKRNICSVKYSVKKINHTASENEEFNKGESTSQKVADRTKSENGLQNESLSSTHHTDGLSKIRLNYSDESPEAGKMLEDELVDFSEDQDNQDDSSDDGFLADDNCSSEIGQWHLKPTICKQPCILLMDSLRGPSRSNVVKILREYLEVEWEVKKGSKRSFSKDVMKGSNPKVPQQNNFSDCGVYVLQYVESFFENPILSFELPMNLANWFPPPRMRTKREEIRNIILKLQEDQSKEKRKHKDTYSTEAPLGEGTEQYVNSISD

[7] = molecular target: T5, Sentrin-specific protease 8 (Homo sapiens, UniProt Q96LD8); assay: inhibition of human SENP8 cleavage activity – biochemical, luminescence, SAR follow-up (AID 504501); assay type: functional
T5 sequence (Q96LD8 whole entry): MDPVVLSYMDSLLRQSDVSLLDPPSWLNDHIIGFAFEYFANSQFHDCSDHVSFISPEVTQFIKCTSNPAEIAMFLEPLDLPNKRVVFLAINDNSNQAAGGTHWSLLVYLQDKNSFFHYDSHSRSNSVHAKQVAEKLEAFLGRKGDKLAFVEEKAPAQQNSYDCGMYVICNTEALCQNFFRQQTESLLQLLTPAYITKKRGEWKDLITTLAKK

Candida albicans [8] = assay: Candida growth inhibition combined with fluconazole – CaCi-2 strain, Alamar Blue, dry powder, set 3, dose response (AID 488907); assay type: functional, organism-based
Candida albicans [9] = assay: resistant Candida growth with fluconazole co-treatment – CaCi-8 strain, Alamar Blue, dry powder, set 3, dose response (AID 488905); assay type: functional, organism-based
[10] = molecular target: DNA dC->dU-editing enzyme APOBEC-3G (Homo sapiens, UniProt Q9HC16); assay: inhibition of APOBEC3G ssDNA deamination – biochemical, fluorescence, single-stranded DNA substrate, SAR follow-up (AID 602136); assay type: functional; conditions: read-out: IC50_Mean
[11] = molecular target: DNA dC->dU-editing enzyme APOBEC-3A (Homo sapiens, UniProt P31941); assay: SAR analysis of small molecule inhibitors of APOBEC3A DNA Deaminase via a fluorescence-based single-stranded DNA deaminase assay.; assay type: functional; conditions: read-out: IC50_Mean
HEK293 = assay: EBV LMP1 TES2 canonical NF-kB signalling blockers – cell-based, HEK293, luciferase, cherry-pick, dose response (AID 588343); assay type: functional; conditions: Homo sapiens
[12] = molecular target: T6, Short transient receptor potential channel 4 (Mus musculus, UniProt Q9QUQ5); assay: block of DAMGO-driven TRPC4 calcium entry – cell-based, HEK293 TRPC4/mu-opioid, Fluo-4 calcium, dose response (AID 434942); assay type: functional;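 note: potency of inhibitors blocking the TRPC4 calcium response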
T6 sequence (Q9QUQ5 whole entry): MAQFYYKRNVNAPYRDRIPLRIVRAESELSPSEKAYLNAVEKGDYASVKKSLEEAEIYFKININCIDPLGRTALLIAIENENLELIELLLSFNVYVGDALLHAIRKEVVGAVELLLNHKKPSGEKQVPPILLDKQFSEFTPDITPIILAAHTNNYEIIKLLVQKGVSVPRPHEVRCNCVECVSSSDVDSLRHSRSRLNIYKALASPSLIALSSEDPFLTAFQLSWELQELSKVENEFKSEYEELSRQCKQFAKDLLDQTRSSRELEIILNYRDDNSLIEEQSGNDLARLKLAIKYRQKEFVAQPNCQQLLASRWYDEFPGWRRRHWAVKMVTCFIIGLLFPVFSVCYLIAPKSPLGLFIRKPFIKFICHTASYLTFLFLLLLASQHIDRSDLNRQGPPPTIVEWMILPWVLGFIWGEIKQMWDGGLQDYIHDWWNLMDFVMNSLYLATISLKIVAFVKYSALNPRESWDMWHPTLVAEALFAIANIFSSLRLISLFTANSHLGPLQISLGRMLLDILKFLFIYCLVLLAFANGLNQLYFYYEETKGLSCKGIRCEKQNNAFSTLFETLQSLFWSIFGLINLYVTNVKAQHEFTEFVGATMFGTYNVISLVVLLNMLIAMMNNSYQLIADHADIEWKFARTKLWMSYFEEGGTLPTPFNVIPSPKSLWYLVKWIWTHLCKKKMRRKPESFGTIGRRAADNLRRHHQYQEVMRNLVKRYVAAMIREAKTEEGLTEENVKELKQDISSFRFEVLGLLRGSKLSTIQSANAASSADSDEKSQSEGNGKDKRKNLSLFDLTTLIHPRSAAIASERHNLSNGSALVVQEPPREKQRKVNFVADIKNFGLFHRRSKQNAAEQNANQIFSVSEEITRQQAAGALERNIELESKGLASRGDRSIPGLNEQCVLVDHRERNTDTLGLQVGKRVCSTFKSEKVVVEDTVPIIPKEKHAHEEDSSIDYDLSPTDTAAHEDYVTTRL

[13] = molecular target: Beta-2 adrenergic receptor (Homo sapiens, UniProt P07550); assay: ADRB2 activation measured by internalization – cell-based, FAP fluorogen, flow cytometry, cherry pick 1, dose response (AID 588763); assay type: functional

Nc1nnc(SCc2nc(O)c3c(-c4ccccc4)csc3n2)s1
IC50 [1]: 28.9 µM (active)
IC50 [2]: > 100 µM (inactive)
IC50 (Major prion protein): 12.2 µM (inactive)
IC50 (Prothrombin): 30.8 µM (active)
IC50 (cells): > 138 µM (inactive)

COc1ccccc1N1N=C(c2cccs2)CC1c1ccccc1 (stereo unspecified)
IC50 (Beta Lactamase): 3.62 µM (active)
IC50 (CHO): > 49.7 µM (inactive)

COc1ccc(NCc2cc3cc(OC)ccc3nc2O)cc1
IC50 [3]: 89.3 µM (active)
IC50 [4]: 62.5 µM (active)
IC50 (H9c2): > 79 µM (inactive)

CCc1ccc(-c2nc(/C=C/c3ccccc3)no2)cc1
IC50 [5]: 46.5 µM (active)
IC50 (Caspase-3): 80 µM (active)
IC50 [6]: > 99 µM (inactive)
IC50 [7]: > 99 µM (inactive)

N#Cc1ccc(C(=O)N2CCN(c3ccccn3)CC2)cc1
AC50 (Candida albicans [8]): 2.66 µM (active)
AC50 (Candida albicans [9]): 128 µM (active)

Fc1ccc(OCCSc2nc3cccnc3[nH]2)cc1
IC50 [10]: > 99 µM (inactive)
IC50 [11]: > 99 µM (inactive)

Brc1ccc2ncnc(NCc3ccccc3)c2c1
AC50 (HEK293): 5.03 µM (active)

Oc1ccccc1Nc1nc(NCc2ccco2)c2ccccc2n1
EC50 [12]: 2.11 µM (active)
EC50 [13]: 0.492 µM (active)
